One molecule from patent publication US9573972B2, “Nurotoxic sterol glycosides” (priority 2008, dated 2017) can be followed below.

Each structure is given as a SMILES string. “Also recorded” adds a separate entry of the source. Marks after values point to notes of the source that are not given here.

Common to all, as to format: in vivo, mouse
One data set concerns Active Caspase-3. Put plainly: Anti-active caspase-3 immunofluorescence. How it is done: (§1) Tissue-mounted slides were processed for fluorescence microscopy as follows: Sections were rinsed in coplin jars for 45 minutes at room temperature (RT) in three changes of PBS. Sections were then incubated at RT for 30 minutes in a blocking permeabilization solution made of 5% normal goat serum (NGS), 5% normal rabbit serum (NRS) or 5% BlokHen II (Ayes Labs, Inc., Tigard, Oreg.), 0.05% Triton X-100 and PBS. Subsequently, the blocking solution was tipped off and the slides were rinsed in PBS for 2 minutes. […]

A further data set concerns Phosphorylated Junser73. Put plainly: Anti-pJun immunofluorescence. How it is done:
as §1

Another data set relates to male CD-1 mice. Put plainly: Leg extension reflex test, SG-fed mice. The source says:
Five-month old male CD-1 mice (30.1-35.7 g, 7.5 cm-8.8 cm) were purchased from Charles River (Wilmington, Mass.). Adult mice were chosen to mimic the mean age of onset of ALS-PDC (Kurland, L. T. (1988a) Trends Neurosci. 11, 51-4; Kurland, L. T., et al. (1994) Amyotrophic lateral sclerosis-parkinsonism-dementia complex on Guam: epidemiologic and etiological perspectives. 109-131). Thirty mice for the SG study were randomly divided into 2 groups (14 control and 16 experimental animals). All animals were housed singly in a virus-free barrier facility in a room maintained at 22° C. under a 12 hour light/dark cycle. The mice were provided ad libitum access to food and water.
The synthetic SG was mixed with finely ground Purina Chow mouse pellets (Mouse Diet™, Purina) to create the experimental pellets with a SG content of 1000 μg per pellet. Dry materials were blended with a sterile silicon spatula. For every 5 g of standard feed, 2.5 mL of doubly-distilled water (dd)H2O was added and the dough was kneaded and round up into pellets. […] SG feeding was conducted daily for 15 weeks and mice were behaviorally monitored until sacrifice at 35 weeks (time point 1) or 52 weeks (time point 2).
Leg extension reflex test: The leg extension reflex test was used as a measure of motor neuron dysfunction (Barneoud et al., 1999). […] The leg extension reflex was measured three times per week in each animal. […]

[1] abbreviates: SG-fed group over time (35 to 52 wk).
Where [2] appears, read: SG-fed vs control, Time-point 2 (52 wk).

As to `CC[C@H](/C=C/[C@@H](C)[C@H]1CC[C@H]2[C@@H]3CC=C4C[C@@H](O[C@@H]5O[C@H](CO)[C@@H](O)[C@H](O)[C@H]5O)CC[C@]4(C)[C@H]3CC[C@]12C)C(C)C` [SG, Stigmasterol β-D-Glucopyranoside], in the data set on Active Caspase-3 (setting [1]), the “Apoptotic cells over time” value was “Apoptotic cells (SG-fed group over time) (ns)”. Moreover, the “Anti-active caspase 3 immunoreactive cells” value in the data set on Active Caspase-3 (setting [2]) was “did not reach significance and (ns)”. In addition, the “Anti-pJun immunoreactive cells over time” value in the data set on Phosphorylated Junser73 (setting [1]) is reported as “Anti-pJun immunoreactive cells (SG-fed group over time) (ns)”. In addition, the “Anti-pJun, change” value with Phosphorylated Junser73 (SG-fed vs control, Time-point 1 (35 wk)) is “Anti-pJun: +199%*”. In addition, the Anti-pJun result with Phosphorylated Junser73 (setting [2]) was “Anti-pJun (ns)”. In addition, in the data set with male CD-1 mice (setting [2]), the Leg extension result is “Leg extension* (*p < 0.05)”. In addition, in the data set with male CD-1 mice (SG-fed, duration of study), the “Leg extension reflex test performance (score 0-4)” value is recorded as “decreased; also recorded: steady decline in performance”.
